Values of other authors, collected in patent US12697312B2, “Methods and devices for treatment of eyelid ptosis” (priority 2022, dated 2026).

How the values were obtained:
Müllers muscle = settings: by activating post synaptic neuromuscular junction and muscle contraction
dry eye = settings: eye drops containing retinyl palmitate 0.05 percent; Kim et al. (2009)

| Compound | effect on the eyelid (ptosis) (Müllers muscle) | treatment of dry eye (keratoconjunctivitis sicca) (dry eye) |
| --- | --- | --- |
| CNC[C@H](O)c1cccc(O)c1 [Phenylephrine] | shown to lift the eyelid | – |
| CCCCCCCCCCCCCCCC(=O)OC/C=C(C)/C=C/C=C(C)/C=C/C1=C(C)CCCC1(C)C [retinyl palmitate] | – | effective treatment for dry eye |
